Experimental data from patent publication US11306078B2, “Piperidine CXCR7 receptor modulators” (IDORSIA PHARMACEUTICALS LTD., priority 2016, dated 2022).

Target: human chemokine receptor CXCR7 (Homo sapiens (Human), UniProt P25106)
Test: Tango CXCR7-bla U2OS beta-arrestin recruitment assay (beta-lactamase reporter, FRET), antagonism of CXCL12/SDF1-α;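 also: compounds preincubated 15 min before CXCL12 addition, then 22 h at 37 °C, FRET emission ratio read with CCF4-AM substrate after 2 h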
Format: cell-based
Details: antagonistic effect on CXCR7; Tango CXCR7-bla U2OS cells, CXCL12/SDF1-α at its EC80

human chemokine receptor CXCR7, sequence (P25106 whole entry): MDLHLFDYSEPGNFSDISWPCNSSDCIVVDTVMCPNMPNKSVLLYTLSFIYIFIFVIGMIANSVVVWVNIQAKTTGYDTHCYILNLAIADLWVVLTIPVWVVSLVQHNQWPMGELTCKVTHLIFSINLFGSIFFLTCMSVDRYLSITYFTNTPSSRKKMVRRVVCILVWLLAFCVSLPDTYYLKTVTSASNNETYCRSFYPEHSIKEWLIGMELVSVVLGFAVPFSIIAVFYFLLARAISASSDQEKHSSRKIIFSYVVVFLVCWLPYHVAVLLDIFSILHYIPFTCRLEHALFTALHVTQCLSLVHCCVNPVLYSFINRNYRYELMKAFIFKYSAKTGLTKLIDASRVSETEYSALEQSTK

| Structure (SMILES) | IC50 [nM] |
| --- | --- |
| C[C@@H](NC(=O)[C@H]1CN(CC2CC2)CC[C@@H]1NC(=O)c1cc(-c2ccc(F)cc2F)no1)c1ccccn1 (single isomer, unassigned) [Example 1.154a, (3S,4S)-1-Cyclopropylmethyl-4-{[3-(2,4-difluoro-phenyl)-isoxazole-5-carbonyl]-amino}-piperidine-3-carboxylic acid ((R)-1-pyridin-2-yl-ethyl)-amide or (3R,4R)-1-Cyclopropylmethyl-4-{[3-(2,4-difluoro-phenyl)-isoxazole-5-carbonyl]-amino}-piperidine-3-carboxylic acid ((R)-1-pyridin-2-yl-ethyl)-amide] | 46 |
| C[C@@H](NC(=O)[C@H]1CN(C2CCCCC2)CC[C@@H]1NC(=O)c1noc(-c2ccc(F)cc2F)n1)c1ccccn1 (single isomer, unassigned) [Example 1.156a, (3S,4S)-1-Cyclohexyl-4-{[5-(2,4-difluoro-phenyl)-[1,2,4]oxadiazole-3-carbonyl]-amino}-piperidine-3-carboxylic acid ((R)-1-pyridin-2-yl-ethyl)-amide or (3R,4R)-1-Cyclohexyl-4-{[5-(2,4-difluoro-phenyl)-[1,2,4]oxadiazole-3-carbonyl]-amino}-piperidine-3-carboxylic acid ((R)-1-pyridin-2-yl-ethyl)-amide] | 19 |
| O=C(N[C@H]1CCN(C2CCCC2)C[C@@H]1C(=O)NC1(c2ccccn2)CC1)c1cc(-c2c(F)cc(F)cc2F)on1 (single isomer, unassigned) [Example 1.170a, (3S,4S)-1-Cyclopentyl-4-{[5-(2,4,6-trifluoro-phenyl)-isoxazole-3-carbonyl]-amino}-piperidine-3-carboxylic acid (1-pyridin-2-yl-cyclopropyl)-amide or (3R,4R)-1-Cyclopentyl-4-{[5-(2,4,6-trifluoro-phenyl)-isoxazole-3-carbonyl]-amino}-piperidine-3-carboxylic acid (1-pyridin-2-yl-cyclopropyl)-amide] | 33 |
| O=C(N[C@H]1CCN(C2CCCC2)C[C@@H]1C(=O)NC1(c2ncccn2)CC1)c1cc(-c2c(F)cc(F)cc2F)on1 (single isomer, unassigned) [Example 1.176a, (3S,4S)-1-Cyclopentyl-4-{[5-(2,4,6-trifluoro-phenyl)-isoxazole-3-carbonyl]-amino}-piperidine-3-carboxylic acid (1-pyrimidin-2-yl-cyclopropyl)-amide or (3R,4R)-1-Cyclopentyl-4-{[5-(2,4,6-trifluoro-phenyl)-isoxazole-3-carbonyl]-amino}-piperidine-3-carboxylic acid (1-pyrimidin-2-yl-cyclopropyl)-amide] | 5 |
| O=C(N[C@H]1CCN(CC2CC2)C[C@@H]1C(=O)NC1(c2ncccn2)CC1)c1cc(-c2ccc(Cl)cc2Cl)on1 (single isomer, unassigned) [Example 1.189a, (3S,4S)-1-Cyclopropylmethyl-4-{[5-(2,4-dichloro-phenyl)-isoxazole-3-carbonyl]-amino}-piperidine-3-carboxylic acid (1-pyrimidin-2-yl-cyclopropyl)-amide or (3R,4R)-1-Cyclopropylmethyl-4-{[5-(2,4-dichloro-phenyl)-isoxazole-3-carbonyl]-amino}-piperidine-3-carboxylic acid (1-pyrimidin-2-yl-cyclopropyl)-amide] | 15 |
| O=C(N[C@@H]1CCN(CC2CC2)C[C@H]1C(=O)NC1(c2ncccn2)CC1)c1cc(-c2ccc(C(F)(F)F)cc2)on1 (single isomer, unassigned) [Example 1.192a, (3R*,4R*)-1-Cyclopropylmethyl-4-{[5-(4-trifluoromethyl-phenyl)-isoxazole-3-carbonyl]-amino}-piperidine-3-carboxylic acid (1-pyrimidin-2-yl-cyclopropyl)-amide] | 854 |
| O=C(N[C@@H]1CCN(CC2CC2)C[C@H]1C(=O)NC1(c2ncccn2)CC1)c1cc(-c2ccc(C(F)(F)F)cc2)on1 (single isomer, unassigned) [Example 1.192b, (3R*,4R*)-1-Cyclopropylmethyl-4-{[5-(4-trifluoromethyl-phenyl)-isoxazole-3-carbonyl]-amino}-piperidine-3-carboxylic acid (1-pyrimidin-2-yl-cyclopropyl)-amide] | 122 |
| O=C(N[C@@H]1CCN(CC2CC2)C[C@H]1C(=O)NC1(c2ncccn2)CC1)c1cc(-c2cccc(C(F)(F)F)c2)on1 (single isomer, unassigned) [Example 1.193a, (3R,4R)-1-Cyclopropylmethyl-4-{[5-(3-trifluoromethyl-phenyl)-isoxazole-3-carbonyl]-amino}-piperidine-3-carboxylic acid (1-pyrimidin-2-yl-cyclopropyl)-amide or (3S,4S)-1-cyclopropylmethyl-4-{[5-(3-trifluoromethyl-phenyl)-isoxazole-3-carbonyl]-amino}-piperidine-3-carboxylic acid (1-pyrimidin-2-yl-cyclopropyl)-amide] | 97 |
| O=C(N[C@@H]1CCN(CC2CC2)C[C@H]1C(=O)NC1(c2ncccn2)CC1)c1cc(-c2ccc(F)c(F)c2F)on1 (single isomer, unassigned) [Example 1.194a, (3R,4R)-1-Cyclopropylmethyl-4-{[5-(2,3,4-trifluoro-phenyl)-isoxazole-3-carbonyl]-amino}-piperidine-3-carboxylic acid (1-pyrimidin-2-yl-cyclopropyl)-amide or (3S,4S)-1-cyclopropylmethyl-4-{[5-(2,3,4-trifluoro-phenyl)-isoxazole-3-carbonyl]-amino}-piperidine-3-carboxylic acid (1-pyrimidin-2-yl-cyclopropyl)-amide] | 13 |
| CN(C)C(=O)[C@@H]1CN(C2CCCCC2)CC[C@H]1NC(=O)c1nnc(-c2ccc(F)cc2F)o1 (single isomer, unassigned) [Example 3.003a, (3R*,4R*)-1-Cyclohexyl-4-{[5-(2,4-difluoro-phenyl)-[1,3,4]oxadiazole-2-carbonyl]-amino}-piperidine-3-carboxylic acid dimethylamide] | 771 |

Other lines, results leading:

| IC50 [nM] | Structure (SMILES) |
| --- | --- |
| 43 | O=C(N[C@@H]1CCN(C2CCCCC2)C[C@H]1C(=O)NC1(c2ccccn2)CC1)c1cn(-c2ccc(F)cc2F)nn1 (single isomer, unassigned) [Example 1.165a, (3R*,4R*)-1-Cyclohexyl-4-{[1-(2,4-difluoro-phenyl)-1H-[1,2,3]triazole-4-carbonyl]-amino}-piperidine-3-carboxylic acid (1-pyridin-2-yl-cyclopropyl)-amide] |
| 537 | O=C(N[C@@H]1CCN(C2CCCCC2)C[C@H]1C(=O)NC1(c2ccccn2)CC1)c1cn(-c2ccc(F)cc2F)nn1 (single isomer, unassigned) [Example 1.165b, (3R*,4R*)-1-Cyclohexyl-4-{[1-(2,4-difluoro-phenyl)-1H-[1,2,3]triazole-4-carbonyl]-amino}-piperidine-3-carboxylic acid (1-pyridin-2-yl-cyclopropyl)-amide] |
| 7 | O=C(N[C@@H]1CCN(CC2CC2)C[C@H]1C(=O)NC1(c2ccccn2)CC1)c1cc(-c2c(F)cc(F)cc2F)on1 (single isomer, unassigned) [Example 1.171a, (3R*,4R*)-1-Cyclopropylmethyl-4-{[5-(2,4,6-trifluoro-phenyl)-isoxazole-3-carbonyl]-amino}-piperidine-3-carboxylic acid (1-pyridin-2-yl-cyclopropyl)-amide] |
| 446 | O=C(N[C@@H]1CCN(CC2CC2)C[C@H]1C(=O)NC1(c2ccccn2)CC1)c1cc(-c2c(F)cc(F)cc2F)on1 (single isomer, unassigned) [Example 1.171b, (3R*,4R*)-1-Cyclopropylmethyl-4-{[5-(2,4,6-trifluoro-phenyl)-isoxazole-3-carbonyl]-amino}-piperidine-3-carboxylic acid (1-pyridin-2-yl-cyclopropyl)-amide] |
| 362 | Cc1cccc([C@H](C)NC(=O)[C@@H]2CN(C3CCCCC3)CC[C@H]2NC(=O)c2cc(-c3ccc(F)cc3F)on2)n1 (single isomer, unassigned) [Example 1.188.d, (3R*,4R*)-1-Cyclohexyl-4-{[5-(2,4-difluoro-phenyl)-isoxazole-3-carbonyl]-amino}-piperidine-3-carboxylic acid [(S)-1-(6-methyl-pyridin-2-yl)-ethyl]-amide] |
| 3 | Cc1cccc([C@@H](C)NC(=O)[C@@H]2CN(C3CCCCC3)CC[C@H]2NC(=O)c2cc(-c3ccc(F)cc3F)on2)n1 (single isomer, unassigned) [Example 1.188a, (3R*,4R*)-1-Cyclohexyl-4-{[5-(2,4-difluoro-phenyl)-isoxazole-3-carbonyl]-amino}-piperidine-3-carboxylic acid [(R)-1-(6-methyl-pyridin-2-yl)-ethyl]-amide] |
| 519 | Cc1cccc([C@@H](C)NC(=O)[C@@H]2CN(C3CCCCC3)CC[C@H]2NC(=O)c2cc(-c3ccc(F)cc3F)on2)n1 (single isomer, unassigned) [Example 1.188b, (3R*,4R*)-1-Cyclohexyl-4-{[5-(2,4-difluoro-phenyl)-isoxazole-3-carbonyl]-amino}-piperidine-3-carboxylic acid [(R)-1-(6-methyl-pyridin-2-yl)-ethyl]-amide] |
| 179 | Cc1cccc([C@H](C)NC(=O)[C@@H]2CN(C3CCCCC3)CC[C@H]2NC(=O)c2cc(-c3ccc(F)cc3F)on2)n1 (single isomer, unassigned) [Example 1.188c, (3R*,4R*)-1-Cyclohexyl-4-{[5-(2,4-difluoro-phenyl)-isoxazole-3-carbonyl]-amino}-piperidine-3-carboxylic acid [(S)-1-(6-methyl-pyridin-2-yl)-ethyl]-amide] |
| 54 | CN(C)C(=O)[C@@H]1CN(C2CCCCC2)CC[C@H]1NC(=O)c1nnc(-c2ccc(F)cc2F)o1 (single isomer, unassigned) [Example 3.003b, (3R*,4R*)-1-Cyclohexyl-4-{[5-(2,4-difluoro-phenyl)-[1,3,4]oxadiazole-2-carbonyl]-amino}-piperidine-3-carboxylic acid dimethylamide] |
